Literature values in patent publication US11969522B2, “Use of immune modulators to improve nerve regeneration” (The Board of Regents of the University of Texas System, priority 2019, dated 2024).

Columns and labels:
hematopoietic stem cells = details: animal and human studies
CXCR4 = details: chronic exposure, rhesus macaques

Structure (SMILES)	hematopoietic stem cell mobilization (hematopoietic stem cells)	T lymphocyte CXCR4 expression on both CD4+ and CD8+ T lymphocytes (CXCR4)
c1cc(CN2CCCNCCNCCCNCC2)ccc1CN1CCCNCCNCCCNCC1 [Plerixafor]	very efficient inducer of hematopoietic stem cell mobilization	
CCCCCc1cc(O)c2c(c1)OC(C)(C)[C@@H]1CCC(C)=C[C@@H]21 [THC]		increase
